Laboratory results: PubChem BioAssay (NCI)
Where “and” joins values, the source holds several entries; their conditions need not be identical. Equal entries are not always repeated.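 Values below derive from 48-hour exposures of cells grown in 96-well plates, with endpoints linearly interpolated between the two concentrations bracketing the appropriate inhibition level. Here, GI50 denotes the concentration required for 50% inhibition of growth. At the TGI there is no net growth.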 Where a SMILES comes first, the peptide text is derived from it. The star is where a group is joined. Cbz = O=C(OCc1ccccc1)*; Boc = CC(C)(C)OC(=O)*; Bn = c1ccc(C*)cc1

Key:
Experiment in all cases: NCI anticancer screen, dose series, 48 h
A549 NSCLC = test system: A549 NSCLC
NCI-H460 lung = test system: NCI-H460 lung
K-562 leukemia = test system: K-562 leukemia
HOP-62 NSCLC = test system: HOP-62 NSCLC
RXF 393 renal = test system: RXF 393 renal
SNB-19 CNS = test system: SNB-19 CNS
SNB-75 CNS = test system: SNB-75 CNS
ACHN renal = test system: ACHN renal
LOX IMVI melanoma = test system: LOX IMVI melanoma
MOLT-4 leukemia = test system: MOLT-4 leukemia
NCI-H23 lung = test system: NCI-H23 lung
RPMI-8226 leukemia = test system: RPMI-8226 leukemia
CAKI-1 renal = test system: CAKI-1 renal
A498 renal = test system: A498 renal
TK-10 renal = test system: TK-10 renal
MDA-MB-231 breast = test system: MDA-MB-231 breast
HOP-92 NSCLC = test system: HOP-92 NSCLC
DU-145 prostate = test system: DU-145 prostate

SMILES | TGI (A549 NSCLC) [µM] | TGI (NCI-H460 lung) | TGI (K-562 leukemia) | TGI (HOP-62 NSCLC) [µM] | TGI (RXF 393 renal) | TGI (SNB-19 CNS) | TGI (SNB-75 CNS) [µM] | TGI (ACHN renal) [µM] | TGI (LOX IMVI melanoma) | TGI (MOLT-4 leukemia) | TGI (NCI-H23 lung) | TGI (RPMI-8226 leukemia) | TGI (CAKI-1 renal) [µM] | TGI (A498 renal) | TGI (TK-10 renal) | TGI (MDA-MB-231 breast) [µM] | TGI (HOP-92 NSCLC) | TGI (DU-145 prostate) [µM] | GI50 (NCI-H460 lung) [nM] | GI50 (RXF 393 renal)
C=CCN(N=O)C(=O)N(CCCC(NC(C)=O)C(=O)NCc1ccccc1)Cc1ccccc1 (stereo not drawn) | > 100 | > 100 µM | > 100 µM | > 100 | > 100 µM | > 100 µM | > 100 | > 100 | > 100 µM | 58.3 µM | > 100 µM | 59.4 µM | 83.9 | > 100 µM | > 100 µM |  |  |  |  | 
COc1ccc(Cc2c(N)[nH]c(=O)n(C)c2=O)cc1 | > 100 | > 100 µM | > 100 µM | > 100 | > 100 µM | > 100 µM | > 100 | > 100 | > 100 µM |  | > 100 µM | > 100 µM | > 100 | > 100 µM | > 100 µM | > 100 | > 100 µM |  |  | 
CCOP1(=O)C=C(Sc2ccc([N+](=O)[O-])cc2[N+](=O)[O-])C(C)(C)O1 (stereo not drawn) | 44.3 | 49.2 µM | > 20 µM | 56.2 | 31.8 µM | > 57.8 µM | 50.3 | 28 | > 34.9 µM | > 100 µM | 46.3 µM | 39.2 µM | 24.8 | 44.5 µM | 31.3 µM |  | 25.3 µM | 26.4 |  | 
CC(C)(C)[Si](C)(C)OCC1OC(n2ccc(=O)[nH]c2=O)C(O[Si](C)(C)C(C)(C)C)[C@@]12O[C@H]2C(N)=O (stereo partly drawn) | 25.9 | 20.4 µM |  | 26.8 |  | 24.1 µM | 24.7 | 16.5 | 18.1 µM | > 100 µM | 28.7 µM | > 100 µM | 28.2 |  | 48.3 µM | 21.7 |  | 17.6 |  | 
COc1cc(C2c3cc4c(cc3[C@@H](NCCN3CCCCC3)C3COC(=O)[C@H]23)OCO4)cc(OC)c1O (stereo partly drawn) | 1.3 | 1.03 µM and 0.914 µM | 20.8 µM and 18 µM | 0.283 | 1.98 µM and 4.14 µM | > 100 µM and 36.7 µM | 2.9 |  | 1.72 µM and 1.61 µM | 0.0735 µM and 0.0311 µM | 1.39 µM and 1.48 µM | 5.69 µM and 3.93 µM |  | 0.904 µM and 1.47 µM | 5.34 µM and 5.88 µM |  | 0.84 µM and 1.64 µM |  | 28.5 | 243 nM and 1270 nM
CC(=O)CCC(=O)C(=[N+]=[N-])S(=O)(=O)c1ccccc1 | > 100 | > 100 µM | > 100 µM | > 100 | > 100 µM | > 100 µM | > 100 | > 100 | > 100 µM | > 100 µM | > 100 µM | > 100 µM |  |  | > 100 µM | > 100 |  | > 100 |  | 
COc1c(OC)c(N)c2cc(C)c(=O)c(C)cc2c1N | > 100 | > 100 µM | > 100 µM | > 100 | > 100 µM | > 100 µM | > 100 | > 100 | > 100 µM | > 100 µM | > 100 µM | > 100 µM | > 100 | > 100 µM | > 100 µM |  | > 100 µM |  |  | 
Cc1cc(C)nc(NC(=S)Nc2ccccc2Cl)c1 | > 100 | > 100 µM | > 100 µM | > 100 | > 100 µM | > 100 µM | > 100 |  | > 100 µM | > 100 µM |  | > 100 µM | > 100 | > 100 µM | > 100 µM |  |  | > 100 |  | 
CCC(CC)n1cc(C(=O)NC(=O)NCCCCCOC(=O)CCCCCCCCCCC(=O)OCCCCCNC(=O)NC(=O)c2cn(C(CC)CC)c(=O)[nH]c2=O)c(=O)[nH]c1=O | > 100 | > 100 µM | > 100 µM | > 100 | > 100 µM | > 100 µM | 53.5 | > 100 | > 100 µM | > 100 µM | > 100 µM | > 100 µM | > 100 | > 100 µM | > 100 µM |  | > 100 µM |  |  | 
O=C(c1ccco1)n1c2ccc(Br)cc2c2nc3ccccc3nc21 |  | > 100 µM | > 100 µM | 87 | > 100 µM | > 100 µM | 58.6 | > 100 | > 100 µM | > 100 µM | > 100 µM | 54.6 µM | > 100 |  | > 100 µM |  | > 100 µM | > 100 |  | 
CN(C(=O)c1ccc(Cl)cc1)C(=S)N1CCN(c2ccccn2)CC1 | > 100 | > 100 µM | > 100 µM | > 100 | > 100 µM | > 100 µM | > 100 | > 100 | > 100 µM | > 100 µM | > 100 µM | > 100 µM | > 100 |  | > 100 µM |  | > 100 µM |  |  | 
CC(C)(C)OC(=O)NC(Cc1ccc(OCc2ccccc2)cc1)C(=O)NC(CCCCNC(=O)OCc1ccccc1)C(=O)O (stereo not drawn) (Boc-Tyr(Bn)-Lys(Cbz)-OH; configuration not given here) | > 100 |  | > 100 µM | > 100 | > 100 µM | > 100 µM | > 100 |  |  | 85.1 µM | > 100 µM | > 100 µM |  |  | > 100 µM | > 100 | 48.5 µM |  |  | 
O=C(Cc1ccccc1)NN1C(=O)C(Cl)C1c1ccc([N+](=O)[O-])cc1 (stereo not drawn) | > 100 | > 100 µM | > 100 µM | > 100 | > 100 µM | > 100 µM | > 100 | > 100 | > 100 µM | > 100 µM | > 100 µM | > 100 µM | > 100 |  | > 100 µM |  |  |  |  | 
O=C1NCCCC12CCCNC2=O | > 100 | > 100 µM | > 100 µM | > 100 | > 100 µM | > 100 µM |  | > 100 | > 100 µM | > 100 µM | > 100 µM | > 100 µM |  |  |  |  |  |  |  | 
CCn1c2ccccc2c2ccc3c(c21)C(=O)c1ccccc1C3=O | > 100 |  | > 100 µM | > 100 | > 100 µM | > 100 µM | > 100 | > 100 |  | > 100 µM | > 100 µM | > 100 µM |  | > 100 µM |  |  | > 100 µM |  |  | 
